Reference: ChEMBL document CHEMBL1201862, “PubChem BioAssay data set” (2004)
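In this assay, cells in 96-well plates receive the compound at five concentrations for 48 hours. Endpoints are linearly interpolated between the surrounding concentrations. At the GI50, growth is halved.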 Calls of active or inactive are those of the source. Rule as the data show it: active = GI50 up to about 1.1 µM and inactive = higher.

Legend:
Test in all cases: inhibition of tumour cell growth, NCI panel, 48 h
T47D = system: T47D
SF-295 = system: SF-295
A549 = system: A549
SF-268 = system: SF-268
LOX IMVI = system: LOX IMVI
RXF 393 = system: RXF 393
SNB-75 = system: SNB-75
EKVX = system: EKVX
MDA-MB-435 = system: MDA-MB-435
UACC-257 = system: UACC-257
COLO 205 = system: COLO 205
SNB-19 = system: SNB-19
M14 = system: M14
SK-MEL-28 = system: SK-MEL-28
K562 = system: K562
SN12C = system: SN12C
UO-31 = system: UO-31
Malme-3M = system: Malme-3M
NCI-H226 = system: NCI-H226

Measured: GI50

Fc1cccc(C2SCC3=Nc4ccccc4CN32)c1 (stereo not given)
inactive: T47D 57.3 µM | SF-295 26.6 µM | A549 59.6 µM | SF-268 67.1 µM | LOX IMVI 40.6 µM | RXF 393 26.8 µM | SNB-75 > 100 µM | EKVX 25.4 µM | MDA-MB-435 33 µM | UACC-257 97.9 µM | COLO 205 28.4 µM | SNB-19 21.6 µM | M14 33.3 µM | SK-MEL-28 98.6 µM | K562 88.9 µM | SN12C > 100 µM | UO-31 41.5 µM

CCOC(=O)c1csc(NC(=O)CN2CCN(c3ccccc3)CC2)n1
inactive: T47D 94 µM | SF-295 > 100 µM | A549 > 100 µM | LOX IMVI > 100 µM | Malme-3M > 100 µM | RXF 393 > 100 µM | SNB-75 38.4 µM | EKVX > 100 µM | NCI-H226 > 100 µM | MDA-MB-435 > 100 µM | UACC-257 > 100 µM | COLO 205 > 100 µM | SNB-19 > 100 µM | M14 > 100 µM | SK-MEL-28 > 100 µM | K562 > 100 µM | UO-31 > 100 µM

O=C(Nc1ccccc1)N1CCN(C(=O)Nc2ccccc2)C1=S
inactive: T47D 40.9 µM | SF-295 23.4 µM | A549 > 100 µM | SF-268 20 µM | LOX IMVI > 100 µM | Malme-3M > 100 µM | RXF 393 19.9 µM | SNB-75 17.9 µM | EKVX > 100 µM | NCI-H226 28.1 µM | MDA-MB-435 > 100 µM | UACC-257 > 100 µM | COLO 205 > 100 µM | M14 56.4 µM | SK-MEL-28 > 100 µM | K562 > 100 µM | SN12C 59.3 µM | UO-31 23.7 µM

COc1ccc(/C=N/NC(=O)O)cc1
inactive: T47D > 100 µM | SF-295 > 100 µM | A549 > 100 µM | LOX IMVI > 100 µM | Malme-3M > 100 µM | RXF 393 > 100 µM | SNB-75 > 100 µM | EKVX > 100 µM | MDA-MB-435 > 100 µM | UACC-257 > 100 µM | COLO 205 > 100 µM | SNB-19 > 100 µM | M14 > 100 µM | SK-MEL-28 > 100 µM | K562 > 100 µM | SN12C > 100 µM | UO-31 > 100 µM

COc1cc(Oc2nc3ccc(C(F)(F)F)cc3nc2-c2ccccc2)cc(OC)c1OC
inactive: T47D 54.7 µM | SF-295 9.48 µM | A549 17.1 µM | SF-268 22.8 µM | LOX IMVI 18.4 µM | Malme-3M 87.9 µM | RXF 393 11 µM | SNB-75 8.75 µM | EKVX 37.8 µM | NCI-H226 33.3 µM | MDA-MB-435 30.4 µM | UACC-257 48.8 µM | COLO 205 15.2 µM | SK-MEL-28 33.9 µM | K562 40.5 µM | SN12C 37 µM | UO-31 > 100 µM

C[N+]1([O-])[C@H]2CC(OC(=O)[C@H](CO)c3ccccc3)C[C@H]1[C@H]1O[C@H]12 (stereo not given in full)
inactive: T47D > 100 µM | SF-295 > 100 µM | A549 > 100 µM | LOX IMVI > 100 µM | Malme-3M > 100 µM | RXF 393 > 100 µM | SNB-75 > 100 µM | EKVX > 100 µM | NCI-H226 > 100 µM | MDA-MB-435 > 100 µM | UACC-257 > 100 µM | COLO 205 > 100 µM | SNB-19 > 100 µM | M14 > 100 µM | SK-MEL-28 > 100 µM | K562 > 100 µM | SN12C > 100 µM | UO-31 > 100 µM

O=P1(N(CCCl)CCCl)Oc2c(Cl)cc(Cl)c(Cl)c2Cc2c(Cl)c(Cl)cc(Cl)c2O1
inactive: T47D > 100 µM | SF-295 22.7 µM | A549 38.5 µM | SF-268 > 100 µM | LOX IMVI 39.8 µM | RXF 393 > 100 µM | SNB-75 > 100 µM | EKVX 92.3 µM | NCI-H226 26.9 µM | MDA-MB-435 60.5 µM | UACC-257 59.7 µM | COLO 205 22.5 µM | M14 75.3 µM | SK-MEL-28 > 100 µM | K562 74 µM | SN12C 61.9 µM | UO-31 48.4 µM

N#CC(c1nc2ccccc2s1)c1nc(Cl)ncc1Br (stereo not given)
inactive: T47D 64.7 µM | SF-295 42.2 µM | A549 46.5 µM | SF-268 34 µM | LOX IMVI 29.3 µM | Malme-3M 41.4 µM | RXF 393 26.9 µM | SNB-75 23.2 µM | EKVX 41.8 µM | NCI-H226 39.5 µM | MDA-MB-435 50.6 µM | UACC-257 77.4 µM | COLO 205 46.3 µM | SNB-19 40.6 µM | M14 44.6 µM | SK-MEL-28 97.9 µM | SN12C 30.6 µM | UO-31 36.7 µM

CC1CC(=O)Nc2ccccc2N1C(=O)C1CC1 (stereo not given)
inactive: T47D > 100 µM | SF-295 > 100 µM | A549 > 100 µM | SF-268 > 100 µM | LOX IMVI > 100 µM | Malme-3M > 100 µM | RXF 393 > 100 µM | EKVX > 100 µM | NCI-H226 > 100 µM | MDA-MB-435 > 100 µM | UACC-257 > 100 µM | COLO 205 > 100 µM | SNB-19 > 100 µM | M14 > 100 µM | SK-MEL-28 > 100 µM | K562 > 100 µM | SN12C > 100 µM | UO-31 > 100 µM

Cc1c(-c2ccccc2)c(C#N)c2nnn(-c3cccc(Cl)c3)c(=O)n12
inactive: T47D 60.5 µM | SF-295 39.6 µM | SF-268 80.5 µM | LOX IMVI 87.1 µM | Malme-3M 87.5 µM | RXF 393 31.2 µM | SNB-75 31.2 µM | EKVX 33.1 µM | NCI-H226 48.5 µM | MDA-MB-435 > 100 µM | UACC-257 > 100 µM | COLO 205 44.4 µM | SK-MEL-28 > 100 µM | K562 50.5 µM | SN12C 71.8 µM

O=C(O)CCCN1CCCCC1
inactive: T47D > 100 µM | SF-295 > 100 µM | A549 > 100 µM | SF-268 > 100 µM | LOX IMVI > 100 µM | Malme-3M > 100 µM | RXF 393 > 100 µM | SNB-75 > 100 µM | EKVX > 100 µM | NCI-H226 > 100 µM | MDA-MB-435 > 100 µM | UACC-257 > 100 µM | SNB-19 > 100 µM | M14 > 100 µM | SK-MEL-28 > 100 µM | K562 > 100 µM | SN12C > 100 µM | UO-31 > 100 µM
